What all share (assay): relative viability (nuclei count vs DMSO), 5 days (fraction); higher = more cells survive
Compound in the test “Alisertib + Foretinib”: COc1cc(Nc2ncc3c(n2)-c2ccc(Cl)cc2C(c2c(F)cccc2OC)=NC3)ccc1C(=O)O [Alisertib] + COc1cc2c(Oc3ccc(NC(=O)C4(C(=O)Nc5ccc(F)cc5)CC4)cc3F)ccnc2cc1OCCCN1CCOCC1 [Foretinib] (partner 0.25 µM)
The method, boiled down:
(§1)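 Values are medians from duplicate plates. Each reflects relative viability, defined as the nuclei count of treated wells over that of vehicle wells. Lung cancer cell lines in 1536-well plates were pin-tool dosed one day after seeding with one drug alone or with a fixed anchor-drug dose plus five library-drug doses (not always all listed) in √10 steps, then fixed, stained and imaged at 4× after 5 days.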

Compound in the test “Alisertib + Pictilisib”: COc1cc(Nc2ncc3c(n2)-c2ccc(Cl)cc2C(c2c(F)cccc2OC)=NC3)ccc1C(=O)O [Alisertib] + CS(=O)(=O)N1CCN(Cc2cc3nc(-c4cccc5[nH]ncc45)nc(N4CCOCC4)c3s2)CC1 [Pictilisib] (partner 1 µM)
The method, boiled down:
as §1

Compound in the test “Alisertib + AZD7762”: COc1cc(Nc2ncc3c(n2)-c2ccc(Cl)cc2C(c2c(F)cccc2OC)=NC3)ccc1C(=O)O [Alisertib] + NC(=O)Nc1cc(-c2cccc(F)c2)sc1C(=O)N[C@H]1CCCNC1 [AZD7762] (partner 0.2 µM)
Put shortly: as §1

Compound in the test “Alisertib + Vorinostat”: COc1cc(Nc2ncc3c(n2)-c2ccc(Cl)cc2C(c2c(F)cccc2OC)=NC3)ccc1C(=O)O [Alisertib] + O=C(CCCCCCC(=O)Nc1ccccc1)NO [Vorinostat] (partner 1 µM)
The method, boiled down:
as §1

LOU-NH91: the relative viability with Alisertib + Foretinib (first compound 0.005 µM) amounted to 0.921; in the test with Alisertib + Foretinib (first compound 0.01581 µM), 0.922; with Alisertib + Foretinib (first compound 0.05 µM), 0.655; in the test with Alisertib + Foretinib (first compound 0.1581 µM) it was 0.444; with Alisertib + Foretinib (first compound 0.5 µM) it was 0.366; in the test with Alisertib + Pictilisib (first compound 0.005 µM), 0.508. Besides, the relative viability with Alisertib + Pictilisib (first compound 0.01581 µM) was 0.487; with Alisertib + Pictilisib (first compound 0.05 µM), 0.448; in the test with Alisertib + Pictilisib (first compound 0.1581 µM), 0.366; in the test with Alisertib + Pictilisib (first compound 0.5 µM) it was 0.392; with Alisertib + AZD7762 (first compound 0.005 µM) it was 0.759; with Alisertib + AZD7762 (first compound 0.01581 µM) it was 0.721. Moreover, the relative viability in the test with Alisertib + AZD7762 (first compound 0.05 µM) is 0.585; in the test with Alisertib + AZD7762 (first compound 0.1581 µM) it was 0.436; with Alisertib + AZD7762 (first compound 0.5 µM), 0.393; in the test with Alisertib + Vorinostat (first compound 0.005 µM), 0.834; with Alisertib + Vorinostat (first compound 0.01581 µM), 0.821; in the test with Alisertib + Vorinostat (first compound 0.05 µM), 0.602. The relative viability was 0.422 with Alisertib + Vorinostat (first compound 0.1581 µM) and 0.371 with Alisertib + Vorinostat (first compound 0.5 µM).

Turning to NCI-H2347, the relative viability in the test with Alisertib + Foretinib (first compound 0.005 µM) worked out at 0.733; with Alisertib + Foretinib (first compound 0.01581 µM) it was 0.84; with Alisertib + Foretinib (first compound 0.05 µM) it was 0.863; in the test with Alisertib + Foretinib (first compound 0.1581 µM), 0.454; with Alisertib + Foretinib (first compound 0.5 µM), 0.459; with Alisertib + Pictilisib (first compound 0.005 µM), 0.534. The relative viability is 0.431 with Alisertib + Pictilisib (first compound 0.01581 µM); 0.41 with Alisertib + Pictilisib (first compound 0.05 µM); 0.376 with Alisertib + Pictilisib (first compound 0.1581 µM); 0.429 in the test with Alisertib + Pictilisib (first compound 0.5 µM); 0.741 with Alisertib + AZD7762 (first compound 0.005 µM); 0.671 in the test with Alisertib + AZD7762 (first compound 0.01581 µM). Moreover, the relative viability came out at 0.585 in the test with Alisertib + AZD7762 (first compound 0.05 µM); 0.387 in the test with Alisertib + AZD7762 (first compound 0.1581 µM); 0.37 in the test with Alisertib + AZD7762 (first compound 0.5 µM); 0.522 with Alisertib + Vorinostat (first compound 0.005 µM); 0.569 in the test with Alisertib + Vorinostat (first compound 0.01581 µM); 0.518 with Alisertib + Vorinostat (first compound 0.05 µM). Besides, the relative viability in the test with Alisertib + Vorinostat (first compound 0.1581 µM) turned out to be 0.407; with Alisertib + Vorinostat (first compound 0.5 µM) it was 0.343.

In the case of NCI-H2126, the relative viability is 1.08 with Alisertib + Foretinib (first compound 0.005 µM); 1.02 in the test with Alisertib + Foretinib (first compound 0.01581 µM); 0.455 with Alisertib + Foretinib (first compound 0.05 µM); 0.294 in the test with Alisertib + Foretinib (first compound 0.1581 µM); 0.382 with Alisertib + Foretinib (first compound 0.5 µM); 0.452 in the test with Alisertib + Pictilisib (first compound 0.005 µM). For the same cell line, the relative viability stood at 0.502 with Alisertib + Pictilisib (first compound 0.01581 µM); 0.367 with Alisertib + Pictilisib (first compound 0.05 µM); 0.28 in the test with Alisertib + Pictilisib (first compound 0.1581 µM); 0.226 in the test with Alisertib + Pictilisib (first compound 0.5 µM); 0.936 with Alisertib + AZD7762 (first compound 0.005 µM); 0.965 with Alisertib + AZD7762 (first compound 0.01581 µM). The relative viability with Alisertib + AZD7762 (first compound 0.05 µM) is 0.883; with Alisertib + AZD7762 (first compound 0.1581 µM) it was 0.466; with Alisertib + AZD7762 (first compound 0.5 µM) it was 0.288; in the test with Alisertib + Vorinostat (first compound 0.005 µM), 0.682; in the test with Alisertib + Vorinostat (first compound 0.01581 µM), 0.802; with Alisertib + Vorinostat (first compound 0.05 µM), 0.366. For the same cell line, the relative viability in the test with Alisertib + Vorinostat (first compound 0.1581 µM) worked out at 0.207; with Alisertib + Vorinostat (first compound 0.5 µM), 0.198.

As for HCC-827, the relative viability with Alisertib + Foretinib (first compound 0.005 µM) amounted to 1.05; in the test with Alisertib + Foretinib (first compound 0.01581 µM), 0.726; in the test with Alisertib + Foretinib (first compound 0.05 µM) it was 0.333; in the test with Alisertib + Foretinib (first compound 0.1581 µM) it was 0.276; in the test with Alisertib + Foretinib (first compound 0.5 µM) it was 0.237; with Alisertib + Pictilisib (first compound 0.005 µM) it was 0.869. In addition, the relative viability with Alisertib + Pictilisib (first compound 0.01581 µM) was found to be 0.978; with Alisertib + Pictilisib (first compound 0.05 µM) it was 0.515; with Alisertib + Pictilisib (first compound 0.1581 µM), 0.381; with Alisertib + Pictilisib (first compound 0.5 µM), 0.361; with Alisertib + AZD7762 (first compound 0.005 µM), 0.18; with Alisertib + AZD7762 (first compound 0.01581 µM), 0.247. The relative viability with Alisertib + AZD7762 (first compound 0.05 µM) came out at 0.206; in the test with Alisertib + AZD7762 (first compound 0.1581 µM) it was 0.123; with Alisertib + AZD7762 (first compound 0.5 µM), 0.15; with Alisertib + Vorinostat (first compound 0.005 µM), 0.779; with Alisertib + Vorinostat (first compound 0.01581 µM), 0.717; with Alisertib + Vorinostat (first compound 0.05 µM) it was 0.753. Moreover, the relative viability turned out to be 0.29 with Alisertib + Vorinostat (first compound 0.1581 µM) and 0.274 with Alisertib + Vorinostat (first compound 0.5 µM).

Regarding NCI-H3122, the relative viability turned out to be 0.9 with Alisertib + Foretinib (first compound 0.005 µM); 0.981 with Alisertib + Foretinib (first compound 0.01581 µM); 0.551 with Alisertib + Foretinib (first compound 0.05 µM); 0.384 with Alisertib + Foretinib (first compound 0.1581 µM); 0.191 with Alisertib + Foretinib (first compound 0.5 µM); 0.584 with Alisertib + Pictilisib (first compound 0.005 µM). Also, the relative viability was 0.62 in the test with Alisertib + Pictilisib (first compound 0.01581 µM); 0.586 with Alisertib + Pictilisib (first compound 0.05 µM); 0.266 with Alisertib + Pictilisib (first compound 0.1581 µM); 0.198 with Alisertib + Pictilisib (first compound 0.5 µM); 0.973 with Alisertib + AZD7762 (first compound 0.005 µM); 0.78 in the test with Alisertib + AZD7762 (first compound 0.01581 µM). Besides, the relative viability with Alisertib + AZD7762 (first compound 0.05 µM) came out at 0.776; in the test with Alisertib + AZD7762 (first compound 0.1581 µM) it was 0.259; in the test with Alisertib + AZD7762 (first compound 0.5 µM), 0.203; with Alisertib + Vorinostat (first compound 0.005 µM) it was 0.891; with Alisertib + Vorinostat (first compound 0.01581 µM), 0.79; with Alisertib + Vorinostat (first compound 0.05 µM), 0.799. Also, the relative viability with Alisertib + Vorinostat (first compound 0.1581 µM) stood at 0.282; in the test with Alisertib + Vorinostat (first compound 0.5 µM), 0.186.

In the case of HOP-62, the relative viability with Alisertib + Foretinib (first compound 0.005 µM) is 1.08; in the test with Alisertib + Foretinib (first compound 0.01581 µM), 0.876; with Alisertib + Foretinib (first compound 0.05 µM) it was 0.285; with Alisertib + Foretinib (first compound 0.1581 µM), 0.256; in the test with Alisertib + Foretinib (first compound 0.5 µM), 0.205; in the test with Alisertib + Pictilisib (first compound 0.005 µM) it was 0.579. Besides, the relative viability with Alisertib + Pictilisib (first compound 0.01581 µM) turned out to be 0.757; in the test with Alisertib + Pictilisib (first compound 0.05 µM) it was 0.373; with Alisertib + Pictilisib (first compound 0.1581 µM), 0.149; with Alisertib + Pictilisib (first compound 0.5 µM), 0.103; with Alisertib + AZD7762 (first compound 0.005 µM), 0.447; with Alisertib + AZD7762 (first compound 0.01581 µM) it was 0.412. Also, the relative viability was 0.268 with Alisertib + AZD7762 (first compound 0.05 µM); 0.158 with Alisertib + AZD7762 (first compound 0.1581 µM); 0.0945 in the test with Alisertib + AZD7762 (first compound 0.5 µM); 0.497 in the test with Alisertib + Vorinostat (first compound 0.005 µM); 0.443 in the test with Alisertib + Vorinostat (first compound 0.01581 µM); 0.174 with Alisertib + Vorinostat (first compound 0.05 µM). Besides, the relative viability with Alisertib + Vorinostat (first compound 0.1581 µM) came out at 0.102; with Alisertib + Vorinostat (first compound 0.5 µM) it was 0.138.

The values are drawn from the supplement of paper PMC10307832.
